Blank lines part the entries; values can stand above or below the compound they belong to.
Key:
[1] = target: T1, M6P/IGF2R (300 kDa protein) (Rattus norvegicus, UniProt G3V824); assay: [3H]RA photoaffinity labeling of the 300 kDa protein; type: binding; conditions: for Inhibition of [3H]RA photolabeling/binding to M6P/IGF2R by nonradioactive competitor: 25- to 50-fold molar excess (50 μM) competitor added before photolysis
T1 construct: about 100 μg of proteins of membrane preparations or serum; from tissue; host or cells: membrane preparations of cultured neonatal Sprague-Dawley rat cardiac myocytes
Method: Photoaffinity Labeling Photoaffinity labeling was performed essentially according to the methods described in Bernstein et al., 1995, Proc. Natl. Acad. Sci. USA 92:654-658. […] After the ethanol has been evaporated with nitrogen, about 100 μg of proteins of membrane preparations or serum [serum proteins were first concentrated using a Biomax-100K Centrifugal Filter Device (Millipore)] were then added to each tube. The final volume was adjusted to 100 μl with 50 mM Tris buffer (pH 7.4) containing protease inhibitors (5 mM EDTA, 5 mM EGTA, 0.1 mM phenylmethylsulfonyl fluoride, 0.05% NaN3, 20 μg/ml aprotinin, 10 μg/ml benzamidine and 12.5 μg/ml chymostatin) and 50 μM butylated hydroxytoluene (a radical scavenger, used to minimize the non-specific labeling) for a final concentration of 1 μM labeled retinoic acid. The samples were incubated at room temperature with agitation for 1 hour in the dark. The samples were exposed to an intense 365-nm UV light source (Model B 100AP, UPland, CA) for 7 min. […] To remove the non-covalently bound ligands, the photolabeled samples were extracted with chloroform/methanol (2:1), or washed once by centrifugation for membrane samples only).
Fluorography The resultant protein pellets were dissolved in SDS sample buffer containing 5% β-mercapto-ethanol and heated at 100° C. for 5 min. These samples were then run on 7% polyacrylamide gels (30:0.2, acrylamide/bisacrylamide ratio), using conventional SDS/PAGE techniques. After electrophoresis, the gels were stained with Coomassie blue, soaked in Amplifier (Amersham, Life Science) for 30 minutes, dried by a vacuum gel dryer and then exposed to Hyperfilm-TM X-ray films (Amersham, Life Science) at […] for 1-3 days.

neonatal rat fibroblasts = assay: Immunofluorescence of cathepsin B distribution in fibroblasts; type: cell-based; conditions: RAR antagonist with RA
From the text: FIGS. 8A and 8B are photomicrographs showing effect of retinoic acid on the distribution of cathepsin B in neonatal rat fibroblasts. […] The enzyme was found mainly in the perinuclear area. […] Bar represents 4 μm.
Since biosynthetic transport of lysosomal enzymes from the TGN to endosomes/lysosomes is mainly mediated by the M6P/IGF2R (Sohar et al., 1998, Biochem. J. 330:903-908), an enhanced trafficking of the receptor should lead to an increased translocation of the M6P-containing lysosomal enzymes from the TGN to lysosomes. To test this, we examined the effect of RA on the intracellular distribution of cathepsin B, a lysosomal protease known to be transported in a M6P-dependent manner in fibroblasts (Hanewinkel et al., 1987, J. Diol. Chem. 262:12351-12355). […] The distribution was similar to that of M6P/IGF2R (shift from perinuclear area to cytoplasmic vesicles throughout the cytoplasm).
(§1) Intracellular Trafficking Materials Retinoic acid was obtained from Sigma Chem. Co. (St. Louis, Mo.). The synthetic retinoids used (AGN193109, TTNPB) were produced by Allergan Inc. (Irvine, Calif.). Stably-transfected P388D1 cells re-expressing the M6P/IGF2R were provided by Dr. William S. Sly (St. Louis University). The rabbit polyclonal antibody against the rat M6P/IGF-II receptor was a gift from Dr. R.G. MacDonald (University of Nebraska). […]

M6P/IGF2R = M6P/IGF2R (Rattus norvegicus, UniProt G3V824); assay: Immunofluorescence of M6P/IGF2R distribution in fibroblasts; type: cell-based; set-up: endogenous in cells; host or cells: primary neonatal rat cardiac fibroblasts; conditions: RAR antagonist with RA
From the text: FIGS. 7A and 7B are photo micrographs showing the effect of retinoic acid on the distribution of the M6P/IGF2R in neonatal rat fibroblasts. […] The receptor was concentrated primarily in the perinuclear structure (probably the TGN area). […] Bar represents 4 μm.
To determine if RA affects intracellular trafficking of the M6P/IGF2R, distribution of the receptor in neonatal rat fibroblasts with or without RA treatment was visualized by immunofluorescence. The primary antibody used to target the receptor was a polyclonal anti-rat M6P/IGF2R (full length) rabbit IgG with high specificity. A non-immuno-rabbit IgG was used as a negative control. As indicated by fluorescence (FIGS. 7A and 7B), the M6P/IGF2R in the fibroblasts is normally concentrated primarily in the perinuclear structure (probably the TGN). […] This indicated a potentiating effect of RA on the trafficking of the M6P/IGF2R from the TGN to the endosomes/lysosomes.
as §1

P388D1 cells = assay: Morphology, growth and apoptosis of P388D1 cells overexpressing M6P/IGF2R; type: cell-based, mouse; conditions: P388D1 cells overexpressing M6P/IGF2R
Method: FIG. 10 is a graph showing the effect of RA treatment on growth rate of P388D1 cells overexpressing M6P/IGF2R protein and P388D1 controls. Open circles, vector control cells without RA treatment; closed circles, vector control cells with 1 μM RA treatment; open triangles, overexpressing cells without RA treatment; closed triangles overexpressing cells with 1 μM RA treatment.
We examined M6P/IGF2R-mediated effects of RA in mouse macrophage P388D1 cells, which are the best characterized cells that lack the M6P/IGF2R protein.

[2] = target: T2, partially-purified neonatal rat serum IGF2R (Rattus norvegicus, UniProt G3V824); assay: Competitive radioligand (10 nM [3H]RA) binding assay; conditions: n=3, read-out: IC50 (50% inhibitory concentration) for [3H]RA binding
T2 construct: both intact (300 kDa) and truncated (260 kDa) forms of M6P/IGF-II receptor exist in the serum; from tissue; host or cells: neonatal rat serum, FPLC Sepharose-12 fraction
Method: Partially purified M6P/IGF-II receptors from neonatal rat serum was prepared using a Fast Protein Liquid Chromatography (FPLC) system equipped with a Sepharose-12 column (Pharmacia). The partially purified M6P/IGF2R protein was diluted in binding buffer (20 mM Tris-HCl, pH 8.0/150 mM NaCl/1mM DTT/protease inhibitors) at a concentration of 50 Ag/ml. […] Incubation was carried out at 22° C. for 2 h in the dark. After the incubation, 0.2 ml chilled charcoal-dextran suspension (charcoal/dextran/glycerol=0.5%/0.05%/20%) was added to remove the unbound ligand.

[3] = test system: neonatal rat cardiac myocytes; assay: Growth, morphology and apoptosis of cardiac myocytes; type: cell-based; conditions: 48 hours
Method: Cultured neonatal rat cardiac myocytes were known to express high levels of the M6P/IGF2R protein. The effect of RA on the growth of normal, neonatal rat cardiac myocytes was examined.
Cell Isolation and Culture For the photoaffinity labeling experiments, cardiac myocytes were isolated from 1-day-old neonatal Sprague-Dawley rats, using the Neonatal Cardiomyocyte Isolation System (Worthington). The isolated cell were cultured on Petri dishes with culture medium (F-10 nutrient mixture/10% horse serum/5% fetal bovine serum/50 μg/ml streptomycin/50 units/ml penicillin G). Cells were used for experiments after 2-6 days of culture.

T1 sequence (G3V824 36-2481): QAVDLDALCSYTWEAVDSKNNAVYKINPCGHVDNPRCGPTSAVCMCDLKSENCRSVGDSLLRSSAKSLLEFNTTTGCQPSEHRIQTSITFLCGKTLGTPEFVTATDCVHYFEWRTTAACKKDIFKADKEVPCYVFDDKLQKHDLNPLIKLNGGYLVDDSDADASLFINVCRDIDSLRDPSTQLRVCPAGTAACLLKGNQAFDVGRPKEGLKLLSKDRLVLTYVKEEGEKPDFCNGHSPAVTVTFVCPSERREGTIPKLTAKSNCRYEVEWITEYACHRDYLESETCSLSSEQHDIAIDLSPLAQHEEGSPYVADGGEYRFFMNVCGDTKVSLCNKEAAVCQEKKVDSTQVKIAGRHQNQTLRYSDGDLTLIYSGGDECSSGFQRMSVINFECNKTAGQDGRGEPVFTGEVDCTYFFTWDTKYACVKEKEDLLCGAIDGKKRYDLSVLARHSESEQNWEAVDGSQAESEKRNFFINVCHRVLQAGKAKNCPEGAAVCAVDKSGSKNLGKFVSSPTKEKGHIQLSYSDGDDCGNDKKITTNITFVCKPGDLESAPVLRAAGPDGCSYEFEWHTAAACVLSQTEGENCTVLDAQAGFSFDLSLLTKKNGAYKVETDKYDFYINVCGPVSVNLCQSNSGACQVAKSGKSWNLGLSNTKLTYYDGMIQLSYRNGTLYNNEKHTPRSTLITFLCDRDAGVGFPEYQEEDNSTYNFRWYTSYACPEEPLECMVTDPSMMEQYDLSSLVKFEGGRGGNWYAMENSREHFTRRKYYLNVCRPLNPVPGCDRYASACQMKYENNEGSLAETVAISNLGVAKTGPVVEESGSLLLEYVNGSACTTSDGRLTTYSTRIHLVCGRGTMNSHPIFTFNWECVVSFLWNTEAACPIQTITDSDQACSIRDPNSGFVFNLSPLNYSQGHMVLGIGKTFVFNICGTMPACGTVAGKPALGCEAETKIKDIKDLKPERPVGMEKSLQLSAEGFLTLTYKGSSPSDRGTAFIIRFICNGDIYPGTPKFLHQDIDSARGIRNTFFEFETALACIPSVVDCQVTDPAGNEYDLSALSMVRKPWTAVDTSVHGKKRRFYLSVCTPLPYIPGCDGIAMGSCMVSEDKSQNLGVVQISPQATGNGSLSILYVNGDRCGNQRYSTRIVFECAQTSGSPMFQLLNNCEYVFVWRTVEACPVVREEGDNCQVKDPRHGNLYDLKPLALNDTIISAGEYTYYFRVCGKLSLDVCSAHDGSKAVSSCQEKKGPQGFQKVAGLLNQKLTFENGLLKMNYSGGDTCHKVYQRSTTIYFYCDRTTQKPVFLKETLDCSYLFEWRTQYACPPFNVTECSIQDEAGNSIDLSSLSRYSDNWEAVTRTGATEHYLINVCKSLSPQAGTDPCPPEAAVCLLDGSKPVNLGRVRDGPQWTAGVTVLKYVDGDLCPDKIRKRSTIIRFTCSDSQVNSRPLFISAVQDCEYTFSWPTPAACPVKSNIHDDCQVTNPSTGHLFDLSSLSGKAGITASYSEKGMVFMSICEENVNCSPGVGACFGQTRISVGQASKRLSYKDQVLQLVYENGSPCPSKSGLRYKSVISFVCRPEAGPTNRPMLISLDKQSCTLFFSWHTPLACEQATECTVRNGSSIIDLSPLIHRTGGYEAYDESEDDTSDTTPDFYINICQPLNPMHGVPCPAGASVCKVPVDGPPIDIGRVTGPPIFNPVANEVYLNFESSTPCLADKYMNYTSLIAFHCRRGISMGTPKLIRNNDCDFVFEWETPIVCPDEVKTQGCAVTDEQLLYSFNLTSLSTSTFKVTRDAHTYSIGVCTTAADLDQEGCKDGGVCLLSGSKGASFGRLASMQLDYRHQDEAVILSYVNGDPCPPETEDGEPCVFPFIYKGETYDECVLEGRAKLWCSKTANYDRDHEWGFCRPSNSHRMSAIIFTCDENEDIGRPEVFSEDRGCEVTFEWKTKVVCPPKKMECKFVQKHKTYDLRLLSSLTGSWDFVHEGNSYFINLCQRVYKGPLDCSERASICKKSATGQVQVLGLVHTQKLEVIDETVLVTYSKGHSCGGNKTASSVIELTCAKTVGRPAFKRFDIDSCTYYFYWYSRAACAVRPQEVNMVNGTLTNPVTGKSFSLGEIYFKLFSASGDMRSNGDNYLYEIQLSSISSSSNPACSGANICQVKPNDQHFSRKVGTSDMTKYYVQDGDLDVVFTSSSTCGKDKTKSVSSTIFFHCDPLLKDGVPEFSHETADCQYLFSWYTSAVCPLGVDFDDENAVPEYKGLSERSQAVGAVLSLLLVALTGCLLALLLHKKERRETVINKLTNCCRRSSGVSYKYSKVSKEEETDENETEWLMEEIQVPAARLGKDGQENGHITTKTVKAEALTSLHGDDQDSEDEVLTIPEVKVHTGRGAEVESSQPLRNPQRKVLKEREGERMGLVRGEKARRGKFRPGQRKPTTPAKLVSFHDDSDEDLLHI
T2 sequence (G3V824 36-2481): as above
Chain of M6P/IGF2R (G3V824 36-2481): as above

Compound: CC1=C(/C=C/C(C)=C/C=C/C(C)=C\C(=O)O)C(C)(C)CCC1 [13-cis-RA, 13-cis-retinoic acid]
Inhibition of [3H]RA photolabeling/binding to M6P/IGF2R by nonradioactive competitor [1]: inhibited the binding

Compound: Cc1ccc(C2=CCC(C)(C)c3ccc(C#Cc4ccc(C(=O)O)cc4)cc32)cc1 [AGN193109]
Blocking of RA effect on cathepsin B distribution by RAR antagonist (neonatal rat fibroblasts): neither blocked by the RAR antagonist
Blocking of RA effect on M6P/IGF2R distribution by RAR antagonist (M6P/IGF2R): neither blocked by the RAR antagonist

Compound: CC1=C(/C=C/C(C)=C/C=C/C(C)=C/C=O)C(C)(C)CCC1 [retinal]
Induction of the RA-like effects on morphology, proliferation and apoptosis (P388D1 cells): similarly induced

Compound: IGF-II: insulin-like growth factor II (a protein), ligand of the M6P/IGF-II receptor
Inhibition of [3H]RA binding to M6P/IGF-II receptor by other receptor ligands ([1]; [3H]RA affinity photolabeling): Neither M6P nor IGF-II inhibited

Second part, led by results:

Inhibition of [3H]RA photolabeling/binding to M6P/IGF2R by nonradioactive competitor [1]: inhibited the binding
Compound: CC1=C(/C=C/C(C)=C\C=C\C(C)=C\C(=O)O)C(C)(C)CCC1 [9-cis-RA, 9-cis-retinoic acid]

[3H]RA labeling of M6P/IGF-II receptor, presence vs absence of M6P ([1]; 5 mM M6P, measured by NIH Image, n=3): 2 fold
Enhancement of cross-linking of [3H]RA to M6P/IGF-II receptor ([1]; [3H]RA affinity photolabeling): significantly enhanced
Inhibition of [3H]RA binding to M6P/IGF-II receptor by other receptor ligands ([1]; [3H]RA affinity photolabeling): Neither M6P nor IGF-II inhibited
Compound: O=C[C@@H](O)[C@@H](O)[C@H](O)[C@H](O)COP(=O)(O)O [M6P, mannose 6-phosphate]

Inhibition of [3H]RA photolabeling/binding to M6P/IGF2R by nonradioactive competitor [1]: inhibited the binding
IC50 [2]: 120 ± 18 nM
Compound: CC1=C(/C=C/C(C)=C/C=C/C(C)=C/CO)C(C)(C)CCC1 [retinol]
Induction of the RA-like effects on morphology, proliferation and apoptosis (P388D1 cells): similarly induced
Cell morphology and growth [3]: exerted effects on cell morphology and growth similar to the effects of RA

Inhibition of [3H]RA photolabeling/binding to M6P/IGF2R by nonradioactive competitor [1]: inhibited the binding
IC50 [2]: 135 ± 30 nM
Compound: retinol acetate
Induction of the RA-like effects on morphology, proliferation and apoptosis (P388D1 cells): similarly induced
Cell morphology and growth [3]: exerted effects on cell morphology and growth similar to the effects of RA

From patent US6596500B1, “Binding of retinoids to M6P/IGF-II receptor” (The General Hospital Corporation, priority 1998, dated 2003)
